Earlier results on seven compounds are cited in patent US20220280453A1, “Pharmaceutical Formulation” (Klaria Pharma Holding AB, priority 2019, published 2022).

Structures are written as SMILES. Where a name gives a salt, the structure may show the parent alone.

For the first data set the following is noted: ionized form.
For the compound `CNC1(c2ccccc2Cl)CCCCC1=O` (racemic) [Ketamine, ketamine], the “pH at which most stable in solution” value is “around 4”.

For a further data set the following is noted: counterions of strong acids; Shannon effective ionic radii.
In the case of `Br` [Bromide (Br^−), Bromide], the Ionic radius is recorded as 1.96 Å. As for `Cl` [Chloride (Cl^−), Chloride], the Ionic radius is 1.81 Å. For the compound `F` [Fluoride (F^−), Fluoride], the Ionic radius is 1.33 Å.

`I` [Iodide (I^−), Iodide]: the Ionic radius was 2.20 Å.

`O=[N+]([O-])O` [Nitrate (NO3^−), Nitrate]: the Ionic radius is given as 2.62 Å. As to `O=S(=O)(O)O` [Sulfate (SO4^2−), Sulfate], the Ionic radius was 2.89 Å.
